The values that follow come from patent US6407042B1 (Monsanto Technology LLC, priority 1996, dated 2002).

For test [1], the system named is Japanese millet (Echinochloa crus-galli, ECHCF). Kind of test: Greenhouse test of herbicidal effectiveness (percent inhibition) on Japanese millet. The format is in vivo. An excerpt: (§1) The herbicidal effectiveness data set forth herein report “inhibition” as a percentage following a standard procedure in the art which reflects a visual assessment of plant mortality and growth reduction by comparison with untreated plants, made by technicians specially trained to make and record such observations. In all cases, a single technician makes all assessments of percent inhibition within any one experiment or trial. Such measurements are relied upon and regularly reported by Monsanto Company in the course of its herbicide business.
(§2) The following procedure was used for testing compositions of the Examples to determine herbicidal effectiveness, except where otherwise indicated.
(§3) Seeds of the plant species indicated were planted in 85 mm square pots in a soil mix which was previously steam sterilized and prefertilized with a 14-14-14 NPK slow release fertilizer at a rate of 3.6 kg/m3. The pots were placed in a greenhouse with subirrigation. About one week after emergence, seedlings were thinned as needed, including removal of any unhealthy or abnormal plants. to create a uniform series of test pots.
(§4) The plants were maintained for the duration of the test in the greenhouse where they received a minimum of 14 hours of light per day. If natural light was insufficient to achieve the daily requirement, artificial light with an intensity of approximately 475 microeinsteins was used to make up the difference. Exposure temperatures were not precisely controlled but averaged about 27° C. during the day and about 18° C. during the night. Plants were sub-irrigated throughout the test to ensure adequate soil moisture levels.
(§5) A set of pots was left untreated as a reference against which effects of the treatments could later be evaluated.
(§6) Application of glyphosate compositions was made by spraying with a track sprayer fitted with a 9501E nozzle calibrated to deliver a spray volume of 93 liters per hectare (l/ha) at a pressure of 166 kilopascals (kPa). After treatment, pots were returned to the greenhouse until ready for evaluation.
(§7) Treatments were made using dilute aqueous compositions. These could be prepared as spray compositions directly from their ingredients, or by dilution with water of preformulated concentrate compositions.
(§8) For evaluation of herbicidal effectiveness, all plants in the test were examined by a single practiced technician, who recorded percent inhibition, a visual measurement of the effectiveness of each treatment by comparison with untreated plants.

Test [2] deals with Velvetleaf (Abutilon theophrasti, ABUTH). Kind of test: Greenhouse test of herbicidal effectiveness (percent inhibition) on velvetleaf. The format is in vivo.
Source text: as §1, §2, §3, §4, §5, §6, §7, §8

In test [3] the test system is Prickly sida (Sida spinosa, SIDSP). Briefly: Greenhouse test of herbicidal effectiveness (percent inhibition) on prickly sida. The format is in vivo. As to conditions: for % Inhibition SIDSP: evaluation 10 days after application.
Source text: as §1, §2, §3, §4, §5, §6, §7, §8

In test [4] the test system is Common lambsquarter (Chenopodium album, CHEAL). Kind of test: Greenhouse test of herbicidal effectiveness (percent inhibition) on common lambsquarter. The format is in vivo. As to conditions: Example 20; 18 days after application.
Source text: as §2, §3
(§9) The plants were maintained for the duration of the test in the greenhouse where they received a minimum of 14 hours of light per day. […]
as §5
(§10) Application of glyphosate compositions was made by spraying with a track sprayer fitted with a 9501E nozzle calibrated to deliver a spray volume of 93 liters per hectare (l/ha) at a pressure of 166 kilopascals (kPa). After treatment, pots were returned to the greenhouse until ready for evaluation. […]
as §8

Test [5] concerns Hemp sesbania (Sesbania exaltata, SEBEX). Briefly: Greenhouse test of herbicidal effectiveness (percent inhibition) on hemp sesbania. The format is in vivo. As to conditions: Example 18; 21 days after application.
Source text: as §2, §3, §9, §5, §10, §8

In a further test the test system is ABUTH and ECHCF. Briefly: Greenhouse test, herbicidal effectiveness overall on both species of the Example. The format is in vivo, Abutilon theophrasti, Echinochloa crus-galli. The conditions noted are these: post-emergence foliar spray 93 l/ha, comparison as worded in the discussion of the Example. How it is done:
The following procedure was used for testing compositions of the Examples to determine herbicidal effectiveness, except where otherwise indicated. […] The pots were placed in a greenhouse with subirrigation. About one week after emergence, seedlings were thinned as needed, including removal of any unhealthy or abnormal plants. to create a uniform series of test pots. The plants were maintained for the duration of the test in the greenhouse where they received a minimum of 14 hours of light per day. […] Exposure temperatures were not precisely controlled but averaged about 27° C. during the day and about 18° C. during the night. Plants were sub-irrigated throughout the test to ensure adequate soil moisture levels. Pots were assigned to different treatments in a fully randomized experimental design with 3 replications. A set of pots was left untreated as a reference against which effects of the treatments could later be evaluated. […] After treatment, pots were returned to the greenhouse until ready for evaluation. Treatments were made using dilute aqueous compositions. […] For evaluation of herbicidal effectiveness, all plants in the test were examined by a single practiced technician, who recorded percent inhibition, a visual measurement of the effectiveness of each treatment by comparison with untreated plants.

The mark [6] stands for this setting: acifluorfen rate 25 g a.i./ha, evaluation 10 days after application.
The mark [7] stands for this setting: acifluorfen rate 50 g a.i./ha, evaluation 10 days after application.
Setting [8] is: acifluorfen rate 100 g a.i./ha, evaluation 10 days after application.
The mark [9] stands for this setting: acifluorfen rate 200 g a.i./ha, evaluation 10 days after application.
Setting [10] is: dicamba rate 25 g a.i./ha, evaluation 17 days after application.
[11] abbreviates: dicamba rate 50 g a.i./ha, evaluation 17 days after application.
The mark [12] stands for this setting: dicamba rate 100 g a.i./ha, evaluation 17 days after application.
Where [13] appears, read: dicamba rate 200 g a.i./ha, evaluation 17 days after application.

Consider `O=C(O)c1cc(Oc2ccc(C(F)(F)F)cc2Cl)ccc1[N+](=O)[O-]` [Acifluorfen (technical)], for which the “% Inhibition ECHCF” value in test [1] (setting [6]) turned out to be 2%; in test [1] (setting [7]), 7%; in test [1] (setting [8]) it was 18%; in test [1] (setting [9]) it was 35%. The “% Inhibition ABUTH” value came to 20% in test [2] (setting [6]), 32% in test [2] (setting [7]), 52% in test [2] (setting [8]) and 62% in test [2] (setting [9]). Besides, the “% Inhibition SIDSP” value in test [3] (acifluorfen rate 25 g a.i./ha) came to 15%; in test [3] (acifluorfen rate 50 g a.i./ha) it was 17%; in test [3] (acifluorfen rate 100 g a.i./ha), 35%; in test [3] (acifluorfen rate 200 g a.i./ha) it was 40%.
For the compound `COC(=O)NS(=O)(=O)c1ccc(N)cc1` [Asulam (technical)], the “% Inhibition ECHCF” value in test [1] (asulam rate 200 g a.i./ha, evaluation 14 days after application) was determined as 12%.
For the compound `COc1c(Cl)ccc(Cl)c1C(=O)O` [Dicamba (technical)], the “% Inhibition ECHCF” value in test [1] (setting [10]) worked out at 0%; in test [1] (setting [11]), 0%; in test [1] (setting [12]), 0%; in test [1] (setting [13]) it was 5%. For the same compound, the “% Inhibition ABUTH” value in test [2] (setting [10]) came out at 47%; in test [2] (setting [11]) it was 63%; in test [2] (setting [12]), 82%; in test [2] (setting [13]), 93%.
With `C[N+](C)(C)CCCNS(=O)(=O)C(F)(F)C(F)(F)C(F)(F)C(F)(F)C(F)(F)C(F)(F)C(F)(F)C(F)(F)F.[I-]` [Fluorad FC-135, 3-(((heptadecafluorooctyl)sulfonyl)amino)-N,N,N-trimethyl-1-propaminium iodide], the “concentration of Fluorad FC-135 added in tank-mix to Formulation B to bring its herbicidal performance up to that of Formulation C” value in test [1] (Example 21, ECHCF, evaluation 20 days after application) is “approximately 0.25%”; in test [2] (Example 21, ABUTH, evaluation 20 days after application), roughly 0.02%; in test [3] (Example 21, SIDSP, evaluation 20 days after application), roughly 0.1%. Also, the optimum adjuvant concentration in test [1] (Example 25, tank-mix adjuvant for glyphosate as Formulation B, ECHCF, 21 days after application) is recorded as 0.2%; in test [2] (Example 25, tank-mix adjuvant for glyphosate as Formulation B, ABUTH, 21 days after application) it was 0.2%.
As usually defined, the inhibition is how much of the control response was suppressed. Higher therefore signals a response far below the control. As to `C[n+]1ccc(-c2cc[n+](C)cc2)cc1` [Paraquat dichloride], the inhibition at 25 g/ha came to 83% in test [1] (Echinochloa crus-galli, 288 h, Table 82, paraquat rate 25 g a.i./ha, evaluation 12 days after application); 50% in test [2] (Abutilon theophrasti, 288 h, Table 82, paraquat rate 25 g a.i./ha, evaluation 12 days after application); 55% in test [3] (Sida spinosa, 288 h, Table 82, paraquat rate 25 g a.i./ha, evaluation 12 days after application). Besides, the inhibition at 50 g/ha amounted to 78% in test [1] (Echinochloa crus-galli, 288 h, Table 82, paraquat rate 50 g a.i./ha, evaluation 12 days after application); 57% in test [2] (Abutilon theophrasti, 288 h, Table 82, paraquat rate 50 g a.i./ha, evaluation 12 days after application); 60% in test [3] (Sida spinosa, 288 h, Table 82, paraquat rate 50 g a.i./ha, evaluation 12 days after application). Moreover, the inhibition at 100 g/ha in test [1] (Echinochloa crus-galli, 288 h, Table 82, paraquat rate 100 g a.i./ha, evaluation 12 days after application) amounted to 84%; in test [2] (Abutilon theophrasti, 288 h, Table 82, paraquat rate 100 g a.i./ha, evaluation 12 days after application), 73%; in test [3] (Sida spinosa, 288 h, Table 82, paraquat rate 100 g a.i./ha, evaluation 12 days after application) it was 69%. Moreover, the inhibition at 200 g/ha in test [1] (Echinochloa crus-galli, 288 h, Table 82, paraquat rate 200 g a.i./ha, evaluation 12 days after application) was 95%; in test [2] (Abutilon theophrasti, 288 h, Table 82, paraquat rate 200 g a.i./ha, evaluation 12 days after application), 85%; in test [3] (Sida spinosa, 288 h, Table 82, paraquat rate 200 g a.i./ha, evaluation 12 days after application) it was 99%.
Consider `O=C(O)CNCP(=O)(O)O` [glyphosate, N-phosphonomethylglycine], for which, in test [4], the “herbicidal activity on CHEAL, result in words” value was “very weak”. The “herbicidal activity on SEBEX, result in words” value in test [5] is “extremely weak”.
As for Steareth-20, in the test with ABUTH and ECHCF, the “herbicidal effectiveness overall (ABUTH and ECHCF), result in words” value is reported as “more effective additives for Formulation B than steareth-10”.
On the same count and under the same terms, for ceteareth-30 the value was “more effective additives for Formulation B than steareth-10”.
